# Where two headings read alike, the source gives them in different places.
# Assays:
# Aspergillus niger = test: 95% growth inhibitory concentration, Aspergillus niger; format: cell-based, Aspergillus niger IFO 9455; conditions: IFO9455, 72 h, read-out: 95% Growth inhibitory concentration, Aspergillus niger
# Procedure: (§1) Strains for use in test: Candida albicans, IFO 1594 Aspergillus niger, IFO 9455
# (§2) Culture medium: Liquid Sabouraud's medium (maltose 40 g, proteose peptone 10 g, distilled water 1000 ml)
# (§3) Positive control: amphotericin B (Sigma) 5-fluorocytosine (Wako Junyaku, Japan)
# (§4) A sample was diluted with culture medium to vary concentrations and poured into test tubes each to contain 5 ml, and a platinum loop of spores was inoculated in each tube. After shaken cultivation at 37° C. for 3 days, formalin (0.5 ml) was added and well mixed. The mixture was centrifuged at 3500 rpm for 10 minutes to collect fungi, which were in turn dewatered on a filter paper, dried at 100° C. for one hour and weighed. The growth rate was determined by the following equation [formula] 95% growth-inhibitory concentration (up to 5% growth rate): a mean value of sample concentrations producing 95% growth inhibitory effects.
# Candida albicans = test: 95% growth inhibitory concentration, Candida albicans; format: cell-based, Candida albicans IFO 1594; conditions: read-out: 95% Growth inhibitory concentration, Candida albicans
# Procedure: as §1, §2, §3
# A culture resulting from shaken cultivation at 37° C. overnight was diluted 100-fold with the culture medium and used as seed culture.
# A sample was diluted with the culture medium to vary concentrations and poured into test tubes each to contain 5 ml, and the seed culture (100 μl) was inoculated. After cultivation with shaking at 37° C. for 18 hours, formalin (0.5 ml) was added, thoroughly mixed, and diluted 10-fold with the culture medium. The resultant liquor was measured for absorbancy at 660 nm. The growth rate (%) was determined according to the equation [formula]
# as §4
# [1] = one week toxicity test, intraperitoneal; format: in vivo; conditions: 5 male ICR mice of 5 weeks age, dose not given
# fungi = conditions: Japanese Patent Publication No. 263121/1987; cited from earlier work
# platelet aggregation = conditions: literature; cited from earlier work
# [2] = Aspergillus niger IFO 9455, liquid Sabouraud's medium, 37° C., 3 days, dry weight, up to 5% growth rate, mean value
# [3] = IFO1594, Candida albicans IFO 1594, liquid Sabouraud's medium, 37° C., 18 hours, up to 5% growth rate, mean value
Structure (SMILES),IC95 (Aspergillus niger; [2]),IC95 (Candida albicans; [3]),other results
"Nc1nc(=O)[nH]cc1F [5-fluorocytosine, reference compound]",80 µg/mL,20 µg/mL,
"C[C@@H]1[C@H](O)[C@@H](C)/C=C/C=C/C=C/C=C/C=C/C=C/C=C/[C@H](O[C@@H]2O[C@H](C)[C@@H](O)[C@H](N)[C@@H]2O)C[C@@H]2O[C@](O)(C[C@@H](O)C[C@@H](O)[C@H](O)CC[C@@H](O)C[C@@H](O)CC(=O)O[C@H]1C)C[C@H](O)[C@H]2C(=O)O [Amphotericin B, reference compound]",,,"IC95 (Aspergillus niger; Aspergillus niger): > 0.8 µg/mL; IC95 (Candida albicans; Candida albicans, IFO1594, 18 h): 0.2 µg/mL"
C=CCSSC=CCS(=O)(=O)CC=C [Compound 1],28.5 µg/mL,5.4 µg/mL,mortality after one week [1]: no mortality was observed
C=CCSSC=CC[S+](C)[O-] (stereo not shown) [Compound 5],57.3 µg/mL,,
C=CC[S+]([O-])SC=CCS(=O)(=O)CC=C (stereo not shown) [Compound 7],30.8 µg/mL,,
CCOC(=O)CCCSSC=CC[S+]([O-])CCCC(=O)OCC (stereo not shown) [Compound 10],80.4 µg/mL,,
C=CCS(=O)(=O)CC=CSSCc1ccccc1 [Compound 16],42.2 µg/mL,,
C=CC[S+]([O-])CC=CSSC (stereo not shown) [Compound 17],49.1 µg/mL,40.7 µg/mL,
C=CCSSC=CC[S+]([O-])CC=C (stereo not shown) [ajoene],,,antifungal activity (fungi): has antifungal activity; platelet aggregation inhibitory activity (platelet aggregation): demonstrated to have platelet aggregation inhibitory activity
C=CCSSSC [methylallyltrisulfide],,,platelet aggregation inhibitory activity (platelet aggregation): platelet aggregation inhibitory activity

# Reference: patent publication US4876281A, “Antifungal agents” (Wakunaga Seiyaku Kabushiki Kaisha, priority 1986, dated 1989)
